Assay results from patent US12097192B2 (Corcept Therapeutics Incorporated, priority 2019, dated 2024).

Columns and labels:
[1] = test system: Cushing syndrome patients; details: patients treated with either mifepristone or metyrapone; cited from earlier work
[2] = test system: Cushing syndrome patients; experiment: Adverse events with other medical therapies for Cushing syndrome; format: in vivo, human; details: one patient treated previously with mifepristone

Row | SMILES | drug induced hypokalemia [1] | adverse event on previous therapy [2]
1 | CC(C)(C(=O)c1cccnc1)c1cccnc1 [metyrapone] | commonly seen adverse event | 
2 | CC#C[C@]1(O)CC[C@H]2[C@@H]3CCC4=CC(=O)CCC4=C3[C@@H](c3ccc(N(C)C)cc3)C[C@@]21C [mifepristone] |  | developed endometrial hypertrophy
